According to article PMC8781960, “Structural Basis of 2-Phenylamino-4-phenoxyquinoline Derivatives as Potent HIV-1 Non-Nucleoside Reverse Transcriptase Inhibitors” (Molecules, 2022):
Marks after values point to notes of the source that are not given here.

How the values were obtained:
HIV-1 RT = biological target: T1, HIV-1 RT (Human immunodeficiency virus type 1 group M subtype B, UniProt P03366); assay: HIV-1 RT inhibition assay (Roche RT kit, colorimetric ELISA); type: biochemical; conditions: for inhibition at 1 µM: read-out: Inhibitory activities (%) against HIV-1 RT
T1 construct: The reaction mixture consisted of template/primer complex, 2′-deoxy-nucleotide-5′-triphosphates (dNTPs), and RT enzyme in lysis buffer; purchased Roche Applied Science, Mannheim, Germany
From the text: The inhibition assay of HIV-1 RT was accomplished using the template/primer hybrid poly(A) × oligo(dT)15, digoxigenin (DIG)- and biotin-labeled nucleotides, an antibody to DIG that was conjugated to peroxidase (anti-DIG-POD), and the peroxidase substrate ABTS. The quantities of DIG- and biotin-labeled dUTP incorporated into DNA represent t HIV-1 RT activity. The HIV-RT inhibition assay was implemented using an RT assay kit (Roche Applied Science, Mannheim, Germany), and the procedures for assaying RT inhibition were performed as described in the kit protocol. […] The reaction mixture consisted of template/primer complex, 2′-deoxy-nucleotide-5′-triphosphates (dNTPs), and RT enzyme in lysis buffer with or without an inhibitor. […] The biotin-labeled dNTPs that were incorporated in the template bound to streptavidin because of the presence of RT. Unbound dNTPs were washed using a wash buffer, and anti-DIG-POD was added to the MTP. The DIG-labeled dNTPs incorporated in the template bound to the anti-DIG-POD antibody. Unbound anti-DIG-POD was also washed elaborately five times using a wash buffer. Finally, the peroxide substrate (ABST) was added to the MTP. A colored reaction product emerged during the cleavage of the substrate catalyzed by […]. The absorbance of the sample was measured at the optical density (OD) at 490 nm using the MTP (enzyme-linked immunosorbent assay [ELISA]) reader. The percentage inhibitory activities of the RT inhibitors were calculated by comparing with that of the sample without an inhibitor. The resulting color intensity was directly proportional to the RT activity. Percentage inhibitory values were calculated using the following formula: Inhibition (%) = [1–(OD value with RT and inhibitor−OD value without RT and inhibitors)/(OD value without inhibitors with RT−OD value without RT and inhibitors)] × 100.

[1] = test system: H69AR (lung cancer, multidrug resistant); assay: In vitro cytotoxicity (MTT); type: cell-based, human; conditions: for IC50: Homo sapiens, H69AR, mean ± standard error
[2] = test system: MOLT-3 (acute lymphoblastic leukemia); assay: In vitro cytotoxicity (XTT); conditions: for IC50: Homo sapiens, MOLT-3, 48 h, read-out: IC50 MOLT-3
Protocol: (§1) Background control wells contained the same volume as the complete culture medium. […] Samples at various concentrations were added to the microplate and incubated for another 48 h. Cell viability was determined by 3(4,5-dimethylthiazol-2-yl)-2-5-diphenyl tetrazolium bromide (MTT) assay (Sig-ma-Aldrich). The reagent was dissolved in phosphate-buffered saline at 5 mg/mL and filtered to sterilize and remove the small amount of insoluble residue present in some batches of MTT. […] Subsequently, dimethyl sulfoxide (100 µL; Merck, Germany) was added to dissolve the resulting formazan by sonication. The plates were read on a microplate reader (Molecular Devices, CA, USA) using a test wavelength of 550 nm and a reference wavelength of 650 nm. XTT assay for suspension cells was used for MOLT-3 cells.

[3] = test system: MRC-5 (normal embryonic lung cell); assay: In vitro cytotoxicity (MTT), normal cell line
Protocol: as §1

[4] = test system: HeLA (cervical carcinoma); assay: In vitro cytotoxicity (MTT); conditions: for IC50: Homo sapiens, HeLa, read-out: IC50 HeLA
Protocol: as §1

HL-60 (promyeloblast) = assay: In vitro cytotoxicity (MTT); conditions: for IC50: Homo sapiens, HL-60, 48 h, read-out: IC50 HL-60
Protocol: as §1

[5] = test system: HuCCA-1 (cholangiocarcinoma); assay: In vitro cytotoxicity (MTT); conditions: for IC50: Homo sapiens, HuCC-A1, 48 h, read-out: IC50 HuCCA-1
Protocol: as §1

S102 (Thai liver cancer) = assay: In vitro cytotoxicity (MTT); conditions: for IC50: Homo sapiens, read-out: IC50 S102
Protocol: as §1

[6] = test system: MDA-MB-231 (hormone-independent breast cancer); assay: In vitro cytotoxicity (MTT); conditions: for IC50: Homo sapiens, MDA-MB-231, 48 h, read-out: IC50 MDA-MB-231
Protocol: as §1

HepG2 (hepatocarcinoma) = assay: In vitro cytotoxicity (MTT); conditions: for IC50: Homo sapiens, HepG2, 48 h, read-out: IC50 HepG2
Protocol: as §1

[7] = test system: T47-D (hormone-dependent breast cancer); assay: In vitro cytotoxicity (MTT); conditions: for IC50: Homo sapiens, T47D, read-out: IC50 T47-D
Protocol: as §1

A549 (lung carcinoma) = assay: In vitro cytotoxicity (MTT); conditions: for IC50: Homo sapiens, A549, 48 h, read-out: IC50 A549
Protocol: as §1

[8] = normal cell line, at 50 µg/mL, inactive (IC50 ≥ 50 µg/mL)
[9] = at 50 µg/mL, inactive (IC50 ≥ 50 µg/mL)

Row | SMILES | IC50 (HIV-1 RT) [µM] | inhibition at 1 µM (HIV-1 RT) [%] | %C percentage cytotoxicity H69AR ([1]; human, 48 h, 50 µg/mL) | melting point [°C] | IC50 [2] [µM] | cytotoxicity toward normal embryonic lung (MRC-5) cells, in words [3] | %C percentage cytotoxicity MRC-5 [3, 8] | IC50 ([4]; 48 h) [µM] | IC50 (HL-60 (promyeloblast)) [µM] | IC50 [5] [µM] | IC50 (S102 (Thai liver cancer); 48 h) [µM] | IC50 [6] [µM] | IC50 (HepG2 (hepatocarcinoma)) [µM] | %C percentage cytotoxicity T47-D [7, 9] | IC50 (A549 (lung carcinoma)) [µM] | IC50 ([1]; 48 h) [µM] | %C percentage cytotoxicity HL-60 (HL-60 (promyeloblast); [9]) | %C percentage cytotoxicity S102 (S102 (Thai liver cancer); [9]) | IC50 ([7]; 48 h) [µM] | %C percentage cytotoxicity A549 (A549 (lung carcinoma); [9]) | also measured
1 | Cc1cc(C=O)cc(C)c1Oc1cc(Nc2ccc(C#N)cn2)nc2ccccc12 [Compound 6b, 4-(2’,6’-Dimethyl-4’-formylphenoxy)-2-(5″-cyanopyridin-2″ylamino)quinoline] | 1.93 | 44.5 ± 2.8 | %C = 21.0 ^c | 275.7 to 276.5 | 12.7 ± 1.1 | very low cytotoxicity | %C = 26.1 ^c | 25.7 ± 0.8 | 20.5 ± 2.1 | 126 ± 1.8 | 112 ± 1.8 | 103 ± 1.9 | 92.8 ± 11.8 | %C = 38.0 ^c | 108 ± 1.2 | – | – | – | – | – | –
2 | N#Cc1ccc(Oc2cc(Nc3ccc(C#N)cn3)nc3ccccc23)cc1 [Compound 6c, 4-(4′-cyanophenoxy)-2-(5″-cyanopyridin-2″ylamino)quinoline] | – | 27.6 ± 2.1 | – | 225.7 to 225.9 | 14.1 ± 0.4 | – | – | 67.7 ± 0.6 | – | 22.9 ± 0.9 | – | 66.6 ± 3 | 101.7 ± 0.7 | – | 14 ± 2.2 | 66.2 ± 2.4 | %C = 9.0 ^c | %C = 44.8 ^c | 47.1 ± 3.3 | – | IC50 ([3]; Homo sapiens, MRC5, 48 h, read-out: IC50 MRC-5): 69.2 ± 12.4 µM
3 | Cc1cc(/C=C/C#N)cc(C)c1Oc1cc(Nc2ccc(C#N)cn2)nc2ccccc12 [Compound 10b-trans, 4-(4′-(2″-(E, Z)-cyanovinyl)-2′,6′-dimethyl-phenoxy)-2-(5″-cyanopyridin-2″ylamino)-aminoquinoline] | – | 32.4 ± 3.5 | %C = 0.0 ^c | – | – | – | %C = 0.0 ^c | – | – | – | – | – | – | %C = 0.0 ^c | – | – | %C = 31.0 ^c | %C = 3.1 ^c | – | %C = 1.0 ^c | %C percentage cytotoxicity MOLT-3 [2, 9]: %C = 2.0 ^c; %C percentage cytotoxicity HeLA [4, 9]: %C = 10.0 ^c; %C percentage cytotoxicity HuCCA-1 [5, 9]: %C = 0.0 ^c; %C percentage cytotoxicity MDA-MB-231 [6, 9]: %C = 17.0 ^c; %C percentage cytotoxicity HepG2 (HepG2 (hepatocarcinoma); [9]): %C = 1.0 ^c
4 | Cc1ccnc2c1NC(=O)c1cccnc1N2C1CC1 [NVP, nevirapine, reference compound] | – | 53.4 ± 2.7 | – | – | – | – | – | – | – | – | – | – | – | – | – | – | – | – | – | – | %C percentage cytotoxicity H69AR [1, 9]: %C = 8.0 ^c; %C percentage cytotoxicity MOLT-3 ([2]; human, 48 h, 50 µg/mL): %C = 29.0 ^c; %C percentage cytotoxicity MRC-5 ([3]; human, 48 h, 50 µg/mL): %C = 1.0 ^c; %C percentage cytotoxicity HeLA ([4]; human, 48 h, 50 µg/mL): %C = 34.0 ^c; %C percentage cytotoxicity HL-60 (HL-60 (promyeloblast); human, 48 h, 50 µg/mL): %C = 3.0 ^c; %C percentage cytotoxicity HuCCA-1 ([5]; human, 48 h, 50 µg/mL): %C = 11.0 ^c; %C percentage cytotoxicity S102 (S102 (Thai liver cancer); human, 48 h, 50 µg/mL): %C = 3.0 ^c; %C percentage cytotoxicity MDA-MB-231 ([6]; human, 48 h, 50 µg/mL): %C = 8.9 ^c; %C percentage cytotoxicity HepG2 (HepG2 (hepatocarcinoma); human, 48 h, 50 µg/mL): %C = 15.4 ^c; %C percentage cytotoxicity T47-D ([7]; human, 48 h, 50 µg/mL): %C = 14.0 ^c; %C percentage cytotoxicity A549 (A549 (lung carcinoma); human, 48 h, 50 µg/mL): %C = 18.0 ^c
5 | Cc1cc(/C=C/C#N)cc(C)c1Nc1ccnc(Nc2ccc(C#N)cc2)n1 [RPV, rilpivirine, reference compound] | 0.06 | 97.1 ± 0.9 | – | – | 4.3 ± 0.5 | very low cytotoxicity | %C = 14.4 ^c | 11.3 ± 1.2 | 11.5 ± 0.8 | 61.3 ± 1.7 | 22.5 ± 1.2 | 25.3 ± 2.9 | 87.4 ± 0.1 | – | – | 57.1 ± 2 | – | – | 15 ± 1.3 | %C = 42.0 ^c | –
